Measurements from patent US20180244629A1, “Compounds And Compositions For The Treatment Of Cancer” (The Broad Institute, Inc., priority 2013, published 2018).
Read-outs that look alike come from different tables or passages of the source.

Legend:
A549 cells = assay: A549 Cytotoxicity Assay (Cell Titer Glo viability); type: cell-based; settings: Homo sapiens, A549
Protocol: A549 Cytotoxicity Assay Protocol. Day 0: A549 cells (ATCC, A549 CCL-185) are grown to 95% confluence in RPMI, 10% FBS/Pen/Strep/L-Glutamine. Day 1: Plate cells (1000 per well) in 40 μl culturing media using Corning 384-well plates (3570), incubate in standard TC conditions (5% CO2, 95% humidity, 37° C.) for 24 h. Day 2: Dilute each concentration of a half-log serial dilution of compound (1 mM-100 nM) 1:200 in culturing media and add […] (50 μl total volume) of that dilution to designated wells (8 replicates per concentration). The final dilution will be 1000×([…]). Day 4: Remove plate from incubator to cool for 20 minutes to room temperature. Add 40 μl of a 25% Promega Cell Titer Glo solution (diluted 1:3 with room temperature PBS) with Thermo combi or multichannel and incubate for 10 min. Read on Perkin-Elmer EnVision with US LUM settings for 0.1 second per well.
A549 Assay Protocol. Day 0: A549 cells (ATCC) are grown in a Triple flask (NUNC) to ˜95% confluence (TrypLE Phenol Red free) and resuspended for dispensing at 25,000 cells/mL of DMEM, 10% FBS/Pen/Strep/L-Glutamine (using the TAP Compact SelecT automated cell culture system). Day 1: Plate cells at 1000 per well in 40 uL media (DMEM/10% FBS/Pen/Strep/L-Glutamine) using Corning 8867BC 384 well plates; incubate in standard TC conditions (5% CO2; 95% humidity, 37° C.) for 24 hours (Compact SelecT). Day 2: Add 100 nL compound per well at dose into 40 uL assay volume using a pin tool (CyBi Well). Pin 100 nL cytotoxic compounds, mitoxantrone (CID 4212) to positive control wells to a final concentration of 10 μM (100 nL 4 mM DMSO stock). Incubate for […] at 37° C. in Liconic incubator, 95% humidity 5% CO2. Day 4: Remove plate from incubator, cool for 15 minutes to room temperature; add 20 μL 50% Promega CellTiterGlo (diluted 1:1 with PBS, pH 7.4) with Thermo Combi. Incubate at room temperature for 5 minutes. Read plates on Perkin-Elmer EnVision with standard luminescence settings for 0.1 sec per well.
(§1) Compounds as shown were tested against various cells lines in vitro according to the methods described herein. Cells are plated in 384-well format in a total volume of 40 μl. Indicated compound concentrations were added 24 hrs after plating the cells. After 48 hrs cell viability was determined using Cell Titer Glo® Luminescent Cell Viability Assay.
as §1, with “Known PDE3 inhibitors” for “Compounds”, “shown below” for “shown”

HeLa cells = assay: HeLa Cytotoxicity Assay (Cell Titer Glo viability); type: cell-based; settings: Homo sapiens, HeLa
Protocol: HeLa Cytotoxicity Assay Protocol: Day 0: HeLa cells (ATCC, HeLa CCL-2) are grown to 95% confluence in DMEM, 10% FBS/Pen/Strep/L-Glutamine. Day 1: Plate cells (1000 per well) in 40 μl culturing media using Corning 384-well plates (3570), incubate in standard TC conditions (5% CO2, 95% humidity, 37 degrees C.) for 24 hours. Day 2: Dilute each concentration of a half-log serial dilution of compound (1 mM-100 nM) 1:200 in culturing media and add 10 μl (50 μl total volume) of that dilution to designated wells (8 replicates per concentration). The final dilution will be 1000×(1 μM-100 pM). Day 4: Remove plate from incubator to cool for 20 minutes to room temperature. Add 40 μl of a 25% Promega Cell Titer Glo solution (diluted 1:3 with room temperature PBS) with Thermo combi or multichannel and incubate for 10 minutes. Read on Perkin-Elmer EnVision with US LUM settings for 0.1 second per well.
as §1
as §1, with “Known PDE3 inhibitors” for “Compounds”, “shown below” for “shown”

[1] = Mean ± SD (n = 3), read-out: Potency (EC50 nM) A549
[2] = Mean ± SD (n = 3), read-out: Potency (EC50 nM) HeLa
[3] = n = 2, read-out: Potency (EC50) A549
[4] = n = 2, read-out: Potency (EC50) HeLa

C[C@@H]1CC(=O)NN=C1c1ccc(N)c(Br)c1
EC50 (A549 cells; 48 hrs, Cell Titer Glo, read-out: EC50 A549): > 10000 nM
EC50 (HeLa cells; 48 h, Cell Titer Glo, read-out: EC50 HeLa): > 10000 nM

CCN(CC)c1ccc(C2=NNC(=O)CC2C)cc1 (stereo not drawn)
EC50 (A549 cells; [1]): > 10000 nM
EC50 (HeLa cells; [2]): 8.8 ± 2.3 nM

CCN(CC)c1ccc(C2=NNC(=O)C[C@H]2C)cc1
EC50 (A549 cells; [1]): > 10000 nM
EC50 (HeLa cells; [2]): 3.8 ± 0.8 nM

CCNc1ccc(C2=NNC(=O)C[C@H]2C)cc1
EC50 (A549 cells; [1]): > 10000 nM
EC50 (HeLa cells; [2]): 71 ± 7 nM

CCN(CC)c1ccc(C2=NNC(=O)CC2C)cc1N (stereo not drawn)
EC50 (A549 cells; [1]): > 10000 nM
EC50 (HeLa cells; [2]): 240 ± 60 nM

CCN(CC)c1ccc(C2=NNC(=O)CC2C)cc1NC(C)=O (stereo not drawn)
EC50 (A549 cells; [1]): > 10000 nM
EC50 (HeLa cells; [2]): > 1000 nM

CC1CC(=O)NN=C1c1ccc(N2CCOCC2)cc1 (stereo not drawn)
EC50 (A549 cells; [1]): > 10000 nM
EC50 (HeLa cells; [2]): 36 ± 9 nM

CC1CC(=O)NN=C1c1ccc(N2CCOCC2)c(F)c1 (stereo not drawn)
EC50 (A549 cells; [1]): > 10000 nM
EC50 (HeLa cells; [2]): 2.8 ± 0.7 nM

C[C@H]1CC(=O)NN=C1c1ccc(N2CCOCC2)c(F)c1
EC50 (A549 cells; [1]): > 10000 nM
EC50 (HeLa cells; [2]): > 1000 nM

CC(=O)N1CCN(c2ccc(C3=NNC(=O)C[C@H]3C)cc2F)CC1
EC50 (A549 cells; [1]): > 10000 nM
EC50 (HeLa cells; [2]): > 1000 nM

C[C@@H]1CC(=O)NN=C1c1ccc(N2CCN(C)CC2)cc1
EC50 (A549 cells; [1]): > 10000 nM
EC50 (HeLa cells; [2]): 310 ± 120 nM

C[C@@H]1CC(=O)NN=C1c1ccc(N2CCCCC2)cc1
EC50 (A549 cells; [1]): > 10000 nM
EC50 (HeLa cells; [2]): 3.9 ± 0.6 nM

C[C@@H]1CC(=O)NN=C1c1ccc(-n2cnnc2)cc1
EC50 (A549 cells; [1]): > 10000 nM
EC50 (HeLa cells; [2]): > 1000 nM

Cc1nc2ccc(C3=NNC(=O)C[C@H]3C)cc2[nH]1
EC50 (A549 cells; [1]): > 10000 nM
EC50 (HeLa cells; [2]): > 1000 nM

CC(=O)Nc1ccc(C2=NNC(=O)C[C@H]2C)cc1Cl
EC50 (A549 cells; [1]): > 10000 nM
EC50 (HeLa cells; [2]): 30 nM

CC(=O)Nc1ccc(C2=NNC(=O)C[C@H]2C)cc1F
EC50 (A549 cells; [1]): > 10000 nM
EC50 (HeLa cells; [2]): > 1000 nM

C#Cc1cc(C2=NNC(=O)C[C@H]2C)ccc1NC(C)=O
EC50 (A549 cells; [1]): > 10000 nM
EC50 (HeLa cells; [2]): 65 ± 10 nM

CC(=O)Nc1ccc(C2=NNC(=O)C[C@H]2C)cc1C(C)=O
EC50 (A549 cells; [1]): > 10000 nM
EC50 (HeLa cells; [2]): 130 ± 10 nM

CC(=O)Nc1ccc(C2=NNC(=O)C[C@H]2C)cc1N
EC50 (A549 cells; [1]): > 10000 nM
EC50 (HeLa cells; [2]): > 1000 nM

C[C@@H]1CC(=O)NN=C1c1ccc(N2CCCOC2=O)cc1
EC50 (A549 cells; [1]): > 10000 nM
EC50 (HeLa cells; [2]): > 1000 nM

C[C@@H]1CC(=O)NN=C1c1ccc(N2CCCCS2(=O)=O)cc1
EC50 (A549 cells; [1]): > 10000 nM
EC50 (HeLa cells; [2]): 330 ± 6 nM

C[C@@H]1CC(=O)NN=C1c1ccccc1
EC50 (A549 cells; [1]): > 10000 nM
EC50 (HeLa cells; [2]): 430 ± 50 nM

CC1CC(=O)NN=C1c1ccc(F)cc1 (stereo not drawn)
EC50 (A549 cells; [1]): > 10000 nM
EC50 (HeLa cells; [2]): 410 ± 270 nM

C[C@@H]1CC(=O)NN=C1c1ccc(Cl)cc1
EC50 (A549 cells; [1]): > 10000 nM
EC50 (HeLa cells; [2]): 33 ± 5 nM

CC1CC(=O)NN=C1c1ccc(F)c(F)c1 (stereo not drawn)
EC50 (A549 cells; [1]): > 10000 nM
EC50 (HeLa cells; [2]): 64 ± 3 nM

C[C@H]1CC(=O)NN=C1c1ccc(F)c(F)c1
EC50 (A549 cells; [1]): > 10000 nM
EC50 (HeLa cells; [2]): > 1000 nM

C[C@@H]1CC(=O)NN=C1c1ccc(I)cc1
EC50 (A549 cells; [1]): > 10000 nM
EC50 (HeLa cells; [2]): 7.1 ± 0.8 nM

C/C=C/c1ccc(C2=NNC(=O)C[C@H]2C)cc1
EC50 (A549 cells; [1]): > 10000 nM
EC50 (HeLa cells; [2]): 8.8 ± 1.1 nM

CCCc1ccc(C2=NNC(=O)C[C@H]2C)cc1
EC50 (A549 cells; [1]): > 10000 nM
EC50 (HeLa cells; [2]): 16 ± 1 nM

CC1CC(=O)NN=C1c1ccc(C2=CCCCC2)cc1 (stereo not drawn)
EC50 (A549 cells; [1]): > 10000 nM
EC50 (HeLa cells; [2]): 2.2 ± 0.4 nM

CC(=O)Nc1ccc(-c2n[nH]c(=O)cc2C)cc1
EC50 (A549 cells; [1]): > 10000 nM
EC50 (HeLa cells; [2]): > 1000 nM

CC1(C)C(=O)NN=C1c1ccc(N)cc1
EC50 (A549 cells; [1]): > 10000 nM
EC50 (HeLa cells; [2]): > 1000 nM

CCN(CC)c1ccc(C2=NNC(=O)C2(C)C)cc1
EC50 (A549 cells; [1]): > 10000 nM
EC50 (HeLa cells; [2]): > 1000 nM

CC1(C)C(=O)NN=C1c1ccc(N2CCOCC2)cc1
EC50 (A549 cells; [1]): > 10000 nM
EC50 (HeLa cells; [2]): > 1000 nM

CC1(C)C(=O)NN=C1c1ccc(Cl)cc1
EC50 (A549 cells; [1]): > 10000 nM
EC50 (HeLa cells; [2]): > 1000 nM

O=C1CC2CCc3cc(N4CCOCC4)ccc3C2=NN1 (stereo not drawn)
EC50 (A549 cells; [1]): > 10000 nM
EC50 (HeLa cells; [2]): > 1000 nM

CCN(CC)c1ccc(-c2nc(C(C)C)no2)cc1[N+](=O)[O-]
EC50 (A549 cells; [3]): > 10000 nM
EC50 (HeLa cells; [4]): > 10000 nM

CC1CC(=O)N(c2ccccc2)N=C1c1ccc(Cl)cc1 (stereo not drawn)
EC50 (A549 cells; [3]): > 10000 nM
EC50 (HeLa cells; [4]): > 10000 nM

CC1CC(=O)NN=C1c1cccs1 (stereo not drawn)
EC50 (A549 cells; [3]): > 10000 nM
EC50 (HeLa cells; [4]): > 10000 nM

O=C1CC(c2ccccc2)=NN1
EC50 (A549 cells; [3]): > 10000 nM
EC50 (HeLa cells; [4]): > 10000 nM

CCN(CC)c1ccc(C2=NNC(=O)CC2C)cc1[N+](=O)[O-] (stereo not drawn) [drawing 154]
EC50 (A549 cells; [1]): > 10000 nM
